Data on 21 compounds can be found in PubChem BioAssay AID330 (DTP/NCI, 2004).

“And” between values parts separate entries of the source, which are not always exact repeats. Equal values may be shown once. Toxic doses and inconclusive results are not listed.

The assay has as its system P388 leukemia ip, CD2F1 mice, survival T/C. The assay can be described thus: NCI In Vivo Anticancer Drug Screen. Data for tumor model P388 Leukemia (intraperitoneal) in CD2F1 (CDF1) mice. Conditions: endpoint: median survival time, higher = longer survival. Summed up: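 Mice carrying the transplanted tumor received test compound or vehicle. Survival was recorded in each group, and the value is the treated-group measurement divided by that of the vehicle-treated control group.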

[1] abbreviates: dose: 50.0 mg/kg/injection, schedule: Q01DX005 (ip), vehicle: saline.
The mark [2] stands for this setting: dose: 12.5 mg/kg/injection, schedule: Q01DX009 (ip), vehicle: water.
Where [3] appears, read: dose: 25.0 mg/kg/injection, schedule: Q01DX009 (ip), vehicle: Klucel (hydroxypropylcellulose) (HPC).
The mark [4] stands for this setting: dose: 50.0 mg/kg/injection, schedule: Q01DX009 (ip), vehicle: saline with Tween-80.
Where [5] appears, read: dose: 100.0 mg/kg/injection, schedule: Q01DX009 (ip), vehicle: Klucel (hydroxypropylcellulose) (HPC).
[6] abbreviates: dose: 200.0 mg/kg/injection, schedule: Q01DX009 (ip), vehicle: Klucel (hydroxypropylcellulose) (HPC).
[7] abbreviates: dose: 200.0 mg/kg/injection, schedule: Q01DX009 (ip), vehicle: saline with Tween-80.
Where [8] appears, read: dose: 60.0 mg/kg/injection, schedule: Q01DX005 (ip), vehicle: saline with Tween-80.
Where [9] appears, read: dose: 120.0 mg/kg/injection, schedule: Q01DX005 (ip), vehicle: saline with Tween-80.
[10] abbreviates: dose: 240.0 mg/kg/injection, schedule: Q01DX005 (ip), vehicle: saline with Tween-80.
The mark [11] stands for this setting: dose: 12.5 mg/kg/injection, schedule: Q01DX009 (ip), vehicle: saline with Tween-80.
The mark [12] stands for this setting: dose: 25.0 mg/kg/injection, schedule: Q01DX009 (ip), vehicle: saline with Tween-80.
Where [13] appears, read: dose: 100.0 mg/kg/injection, schedule: Q01DX009 (ip), vehicle: saline with Tween-80.
The mark [14] stands for this setting: dose: 50.0 mg/kg/injection, schedule: Q01DX005 (ip), vehicle: saline with Tween-80.

Consider `COC(=O)C1C(NC(C)(C)C)CCN1C(C)=O` (stereo not given), for which the T/C is 89 % of control under setting [1]; 88 % of control (dose: 100.0 mg/kg/injection, schedule: Q01DX005 (ip), vehicle: saline); 89 % of control (dose: 200.0 mg/kg/injection, schedule: Q01DX005 (ip), vehicle: saline).
With `Cc1cc2c(cc1C)n1c(=O)n(C)c(=O)c(C#N)c1n2C`, the T/C was 100 % of control (dose: 7.5 mg/kg/injection, schedule: Q01DX005 (ip), vehicle: saline with Tween-80) and 101 % of control (dose: 15.0 mg/kg/injection, schedule: Q01DX005 (ip), vehicle: saline with Tween-80).
In the case of `COc1cccc2c1C(=O)c1c(O)c3c(c(O)c1C2=O)C[C@@](O)(c1csc(N2CCN(C)CC2)n1)C[C@@H]3OC1CC(N)C(O)C(C)O1` (stereo not given in full), the T/C is 113 % of control (dose: 0.39 mg/kg/injection, schedule: Q01DX009 (ip), vehicle: water); 122 % of control (dose: 0.78 mg/kg/injection, schedule: Q01DX009 (ip), vehicle: water); 155 % of control (dose: 1.56 mg/kg/injection, schedule: Q01DX009 (ip), vehicle: water); 158 % of control (dose: 3.13 mg/kg/injection, schedule: Q01DX009 (ip), vehicle: water); 122 % of control under setting [2].
Regarding `O=C(O)c1c2c(nc3ccccc13)Cc1ccccc1-2`, the T/C by setting is: (dose: 6.25 mg/kg/injection, schedule: Q01DX009 (ip), vehicle: Klucel (hydroxypropylcellulose) (HPC)) 97 % of control; (dose: 6.25 mg/kg/injection, schedule: Q01DX009 (ip), vehicle: water) 101 % of control; (dose: 12.5 mg/kg/injection, schedule: Q01DX009 (ip), vehicle: Klucel (hydroxypropylcellulose) (HPC)) 98 % of control; under setting [2], 99 % of control and 109 % of control; under setting [3], 106 % of control; (dose: 25.0 mg/kg/injection, schedule: Q01DX009 (ip), vehicle: water) 104 % of control and 110 % of control and 114 % of control. Also, the T/C is 110 % of control under setting [4]; 115 % of control and 121 % of control (dose: 50.0 mg/kg/injection, schedule: Q01DX009 (ip), vehicle: water); 160 % of control and 169 % of control under setting [5]; 166 % of control and 172 % of control (dose: 100.0 mg/kg/injection, schedule: Q01DX009 (ip), vehicle: water); 172 % of control and 179 % of control under setting [6]; 181 % of control under setting [7]. For the same compound, the T/C (dose: 200.0 mg/kg/injection, schedule: Q01DX009 (ip), vehicle: water) was 106 % of control.
For the compound `CSC(SC)(SC)c1cc(C)no1`, the T/C is, setting by setting: under setting [8], 111 % of control; under setting [9], 102 % of control; under setting [10], 104 % of control.
`C=C1C2CCC3(CCC4C5(C)CCCC4(C=[N+](CCO)C5)C3C2)C1O` (stereo not given): the T/C under setting [3] is 94 % of control.
In the case of `CC(=O)Nc1ccc(S(=O)(=O)Nc2c(N)[nH]c(=S)[nH]c2=O)cc1`, the T/C under setting [8] is 97 % of control, the T/C under setting [9] was 98 % of control and the T/C under setting [10] is 97 % of control.
Turning to `CCN(CC)CCCCNc1ccc(NCCCCN(CC)CC)c2c1C(=O)c1ccccc1C2=O`, the T/C by setting is: (dose: 3.12 mg/kg/injection, schedule: Q01DX009 (ip), vehicle: saline) 90 % of control; (dose: 6.25 mg/kg/injection, schedule: Q01DX009 (ip), vehicle: saline) 90 % of control; under setting [11], 118 % of control; (dose: 12.5 mg/kg/injection, schedule: Q01DX009 (ip), vehicle: saline) 97 % of control; under setting [12], 115 % of control; under setting [4], 120 % of control. The T/C was 91 % of control (dose: 50.0 mg/kg/injection, schedule: Q01DX009 (ip), vehicle: saline) and 100 % of control (dose: 100.0 mg/kg/injection, schedule: Q01DX009 (ip), vehicle: saline).
In the case of `CCCCCC#CC(=O)OC`, the T/C is 109 % of control under setting [12], 109 % of control under setting [4], 104 % of control under setting [13] and 118 % of control under setting [7].
Turning to `O=[N+]([O-])CC(O)C(Cl)(Cl)Cl` (stereo not given), the T/C by setting is: (dose: 50.0 mg/kg/injection, schedule: Q01DX001 (ip), vehicle: saline) 107 % of control; (dose: 100.0 mg/kg/injection, schedule: Q01DX001 (ip), vehicle: saline) 107 % of control; (dose: 200.0 mg/kg/injection, schedule: Q01DX001 (ip), vehicle: saline) 107 % of control.
For `O=C1C=CC(=O)C2=C1CCOC2c1ccccc1` (stereo not given), the T/C under setting [14] is 91 % of control.
With `OC(CC1CC2(CCN1)OCCO2)c1ccccc1` (stereo not given), the T/C reads like this: (dose: 12.5 mg/kg/injection, schedule: Q01DX005 (ip), vehicle: saline) 105 % of control; (dose: 25.0 mg/kg/injection, schedule: Q01DX005 (ip), vehicle: saline) 105 % of control; under setting [1], 108 % of control.
On to `CC1C2CC3OC(=O)C1C3C2` (stereo not given), for which the T/C (dose: 12.5 mg/kg/injection, schedule: Q01DX005 (ip), vehicle: saline with Tween-80) is 102 % of control; the T/C (dose: 25.0 mg/kg/injection, schedule: Q01DX005 (ip), vehicle: saline with Tween-80) was 102 % of control; the T/C under setting [14] is 99 % of control and 106 % of control.
For the compound `O=[N+]([O-])c1ccc(N2CCN(Cc3ccccc3)CC2)c2c1no[n+]2[O-]`, the T/C is, setting by setting: (dose: 37.5 mg/kg/injection, schedule: Q04DX003 (ip), vehicle: saline) 100 % of control; (dose: 37.5 mg/kg/injection, schedule: Q04DX003 (ip), vehicle: suspension in saline) 104 % of control; (dose: 75.0 mg/kg/injection, schedule: Q04DX003 (ip), vehicle: saline) 97 % of control; (dose: 75.0 mg/kg/injection, schedule: Q04DX003 (ip), vehicle: suspension in saline) 120 % of control; (dose: 150.0 mg/kg/injection, schedule: Q04DX003 (ip), vehicle: saline) 100 % of control; (dose: 150.0 mg/kg/injection, schedule: Q04DX003 (ip), vehicle: suspension in saline) 109 % of control. In addition, the T/C was 100 % of control (dose: 300.0 mg/kg/injection, schedule: Q04DX003 (ip), vehicle: saline) and 104 % of control (dose: 300.0 mg/kg/injection, schedule: Q04DX003 (ip), vehicle: suspension in saline).
For `CC1=CC2(C)C3C(=O)NC(=O)C3C1C1(C)C3C(=O)NC(=O)C3C21` (stereo not given), the T/C is, setting by setting: under setting [3], 103 % of control; (dose: 50.0 mg/kg/injection, schedule: Q01DX009 (ip), vehicle: Klucel (hydroxypropylcellulose) (HPC)) 108 % of control; under setting [5], 109 % of control; under setting [6], 97 % of control.
Regarding `CCC(=O)Nc1ccc(C(=O)C(C)=O)cc1`, the T/C runs as follows: (dose: 8.0 mg/kg/injection, schedule: Q01DX009 (ip), vehicle: saline with Tween-80) 104 % of control; (dose: 16.0 mg/kg/injection, schedule: Q01DX009 (ip), vehicle: saline with Tween-80) 104 % of control; (dose: 32.0 mg/kg/injection, schedule: Q01DX009 (ip), vehicle: saline with Tween-80) 99 % of control.
Turning to `CC12C=CC(C(C(=O)O)C1=O)C2(C)C` (stereo not given), the T/C runs as follows: (dose: 100.0 mg/kg/injection, schedule: Q04DX002 (ip), vehicle: saline with Tween-80) 107 % of control; (dose: 200.0 mg/kg/injection, schedule: Q04DX002 (ip), vehicle: saline with Tween-80) 103 % of control.
Take `CCCCCC(=O)Cc1cc(OC)cc(O)c1C(=O)Oc1cc(CCCCC)c(C(=O)O)c(OC)c1`: the T/C by setting is: (dose: 0.25 mg/kg/injection, schedule: Q01DX009 (ip), vehicle: saline with Tween-80) 101 % of control; (dose: 0.5 mg/kg/injection, schedule: Q01DX009 (ip), vehicle: saline with Tween-80) 104 % of control; (dose: 1.0 mg/kg/injection, schedule: Q01DX009 (ip), vehicle: saline with Tween-80) 108 % of control.
In the case of `COCCCNC1=C(C#N)C(=O)NC(c2cccs2)S1` (stereo not given), the T/C under setting [4] was 117 % of control and the T/C under setting [13] is 119 % of control.
In the case of `COc1nc2ccccc2nc1OC`, the T/C is 97 % of control under setting [13]; 100 % of control under setting [7]; 97 % of control (dose: 400.0 mg/kg/injection, schedule: Q01DX009 (ip), vehicle: saline with Tween-80).
On to `O=C(/C=C/c1ccc(Cl)c(Cl)c1)c1ccc(Cl)cc1`, for which the T/C under setting [11] was 100 % of control, the T/C under setting [12] is 100 % of control and the T/C under setting [4] was 100 % of control.
